Experimental data as given in ChEMBL document CHEMBL1201862, “PubChem BioAssay data set” (2004).
Activity calls are given as the source filed them.

What was measured:
[1] = biological target: T1, Insulin-degrading enzyme (Homo sapiens, UniProt P14735); experiment: Dose Response: Fluorescence polarization-based cell-based high throughput dose response assay for inhibitors of insulin-degrading enzyme (IDE). [Related pubchem assays: 434962 (Primary screen (IDE inhibitors in singlicate)), 449730 (Counterscreen (Cytotoxicity in triplicate)), 435028 (Confirmation (IDE inhibitors in triplicate)), 434984 (Summary …; type: functional
T1 sequence (P14735 whole entry): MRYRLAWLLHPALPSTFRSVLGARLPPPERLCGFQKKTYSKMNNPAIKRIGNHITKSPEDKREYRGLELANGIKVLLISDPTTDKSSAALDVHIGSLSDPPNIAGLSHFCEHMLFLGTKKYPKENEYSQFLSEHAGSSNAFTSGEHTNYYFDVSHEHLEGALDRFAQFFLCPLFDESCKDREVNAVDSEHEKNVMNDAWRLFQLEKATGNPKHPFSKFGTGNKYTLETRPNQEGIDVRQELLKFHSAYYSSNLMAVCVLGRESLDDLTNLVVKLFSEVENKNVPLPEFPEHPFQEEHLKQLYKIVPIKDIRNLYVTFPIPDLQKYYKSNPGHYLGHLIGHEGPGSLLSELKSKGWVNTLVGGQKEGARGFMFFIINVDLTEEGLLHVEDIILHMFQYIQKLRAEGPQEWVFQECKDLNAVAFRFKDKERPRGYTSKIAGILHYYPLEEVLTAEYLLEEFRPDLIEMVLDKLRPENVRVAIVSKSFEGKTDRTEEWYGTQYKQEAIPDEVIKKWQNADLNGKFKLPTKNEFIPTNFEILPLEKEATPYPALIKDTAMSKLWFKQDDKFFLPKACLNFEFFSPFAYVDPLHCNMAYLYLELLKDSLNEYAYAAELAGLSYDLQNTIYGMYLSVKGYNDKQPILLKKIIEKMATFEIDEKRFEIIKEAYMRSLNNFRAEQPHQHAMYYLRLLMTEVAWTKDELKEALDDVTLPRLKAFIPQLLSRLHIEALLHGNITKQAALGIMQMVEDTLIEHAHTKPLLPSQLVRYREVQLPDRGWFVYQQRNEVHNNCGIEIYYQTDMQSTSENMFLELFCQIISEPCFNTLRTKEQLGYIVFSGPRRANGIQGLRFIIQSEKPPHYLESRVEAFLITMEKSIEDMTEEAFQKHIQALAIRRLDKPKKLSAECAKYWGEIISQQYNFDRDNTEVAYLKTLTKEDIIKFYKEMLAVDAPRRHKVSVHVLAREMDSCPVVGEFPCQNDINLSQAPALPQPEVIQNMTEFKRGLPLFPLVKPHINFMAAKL

[2] = Counterscreen for IDE inhibitors: Luminescence-based cell-based high throughput dose response assay to identify compounds that are cytotoxic to HEK cells. [Related pubchem assays: 434962 (Primary screen (IDE inhibitors in singlicate)), 449730 (Counterscreen (Cytotoxicity in triplicate)), 435028 (Confirmation (IDE inhibitors in triplicate)) …; type: functional; conditions: HEK293
[3] = biological target: T2, Neuropeptide Y receptor type 2 (Homo sapiens, UniProt P49146); experiment: NPY-Y2 antagonist potency, selectivity check, dose response, counter-screen for NPY-Y1 antagonist project, cell-based (AID 1278); type: functional
T2 sequence (P49146 whole entry): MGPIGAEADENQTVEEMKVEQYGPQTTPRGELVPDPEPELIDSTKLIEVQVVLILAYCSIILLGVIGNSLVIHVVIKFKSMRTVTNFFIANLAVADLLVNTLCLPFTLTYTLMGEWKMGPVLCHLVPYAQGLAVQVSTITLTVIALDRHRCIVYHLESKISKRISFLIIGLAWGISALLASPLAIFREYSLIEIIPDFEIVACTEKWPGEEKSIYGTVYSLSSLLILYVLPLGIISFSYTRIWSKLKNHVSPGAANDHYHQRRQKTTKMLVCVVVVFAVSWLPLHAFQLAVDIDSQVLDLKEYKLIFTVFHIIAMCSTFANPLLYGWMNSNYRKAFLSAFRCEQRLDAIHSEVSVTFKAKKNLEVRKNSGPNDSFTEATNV

[4] = biological target: T3, Neuropeptide Y receptor type 1 (Homo sapiens, UniProt P25929); experiment: NPY-Y1 receptor antagonist potency, dose response, cell-based (AID 1277); type: functional
T3 sequence (P25929 whole entry): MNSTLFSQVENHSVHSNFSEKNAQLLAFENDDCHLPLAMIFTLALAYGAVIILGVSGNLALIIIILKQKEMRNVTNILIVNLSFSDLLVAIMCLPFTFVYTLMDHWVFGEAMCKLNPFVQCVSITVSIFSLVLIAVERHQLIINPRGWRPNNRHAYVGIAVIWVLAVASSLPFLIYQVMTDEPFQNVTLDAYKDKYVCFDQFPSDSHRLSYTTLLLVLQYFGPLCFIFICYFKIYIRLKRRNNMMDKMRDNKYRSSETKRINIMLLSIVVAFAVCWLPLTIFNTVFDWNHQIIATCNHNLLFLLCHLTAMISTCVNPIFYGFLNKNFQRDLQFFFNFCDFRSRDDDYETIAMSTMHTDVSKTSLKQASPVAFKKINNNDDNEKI

[5] = Luminescence Cell-Based Dose Retest to Confirm Inhibitors of Cancer Stem Cells. [Related pubchem assays (depositor defined):AID2717, AID2721]; type: functional; conditions: Homo sapiens
[6] = biological target: Vasopressin V1a receptor (Homo sapiens, UniProt P37288); experiment: Fluorescence-based cell-based high throughput dose response screening assay for agonists of the vasopressin 1 receptor (V1R).; type: functional
Vasopressin V1a receptor, sequence (P37288 whole entry): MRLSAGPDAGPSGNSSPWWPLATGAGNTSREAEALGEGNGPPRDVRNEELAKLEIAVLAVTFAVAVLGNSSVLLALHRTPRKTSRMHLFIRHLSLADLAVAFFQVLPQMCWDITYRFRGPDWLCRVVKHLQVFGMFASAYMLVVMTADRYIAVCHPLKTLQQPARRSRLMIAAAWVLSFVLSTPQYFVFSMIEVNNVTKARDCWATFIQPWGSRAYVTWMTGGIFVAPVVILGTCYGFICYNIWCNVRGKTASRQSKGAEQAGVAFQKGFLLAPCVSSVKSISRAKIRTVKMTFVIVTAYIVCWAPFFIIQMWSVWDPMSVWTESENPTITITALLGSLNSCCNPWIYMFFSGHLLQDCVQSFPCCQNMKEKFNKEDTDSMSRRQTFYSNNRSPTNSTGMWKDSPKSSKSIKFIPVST

[7] = biological target: Oxytocin receptor (Homo sapiens, UniProt P30559); experiment: Counterscreen for vasopressin 1 receptor (V1R) agonists: Fluorescence-based cell-based high throughput dose response assay for agonists of the Oxytocin Receptor (OXTR). [Related pubchem assays: 2435 (Primary screen (OXTR agonists in singlicate)), 434964 (Confirmation screen (V1R agonists in triplicate)), 434969 (Counterscreen (OXTR agonists in …; type: functional
Oxytocin receptor, sequence (P30559 whole entry): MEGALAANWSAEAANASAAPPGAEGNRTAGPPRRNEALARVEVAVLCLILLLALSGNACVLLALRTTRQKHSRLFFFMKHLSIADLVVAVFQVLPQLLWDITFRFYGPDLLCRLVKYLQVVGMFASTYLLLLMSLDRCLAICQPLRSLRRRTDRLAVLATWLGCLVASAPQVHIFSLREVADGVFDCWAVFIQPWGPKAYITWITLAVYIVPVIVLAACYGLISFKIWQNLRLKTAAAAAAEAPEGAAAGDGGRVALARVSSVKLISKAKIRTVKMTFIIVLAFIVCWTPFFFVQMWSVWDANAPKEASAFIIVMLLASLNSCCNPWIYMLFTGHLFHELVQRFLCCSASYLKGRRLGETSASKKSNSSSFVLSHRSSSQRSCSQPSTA

[8] = test system: Vero; experiment: host cell cytotoxicity of antiviral hits, dose response, cytotoxicity control for West Nile virus antiviral project, secondary assay (AID 1650); type: functional; conditions: Chlorocebus sabaeus
[9] = test system: INS1; experiment: beta cell apoptosis inhibitors, cytokine rescue, dose response, luminescence, retest (AID 449756); type: functional, cell-based; conditions: Rattus norvegicus;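 further: cell death triggered by IL-1 beta plus TNF-alpha plus IFN-gamma mixture; protective hits raise ATP signal compared with cytokine alone wells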
[10] = biological target: T3, Neuropeptide Y receptor type 1; type: functional
[11] = cytotoxicity in HEK-293T cells, dose response, cytotoxicity control for TCR NF-kB inhibitor project, luminescence, T-cell screen hits (AID 489026); type: functional, cell-based;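 further: cells exposed to compound about 14 hours before the viability readout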
[12] = biological target: T2, Neuropeptide Y receptor type 2; type: functional, cell-based
[13] = biological target: Aryl hydrocarbon receptor (Homo sapiens, UniProt P35869); experiment: Luminescence-based cell-based high throughput dose response assay for activators of the Aryl Hydrocarbon Receptor (AHR). [Related pubchem assays: 2796 (Primary screen (AHR activators in singlicate)), 2845 (Confirmation screen (AHR activators in triplicate)), 434939 (Counterscreen (PXR activators in triplicate)), 2804 (Summary (AHR activators))]; type: ADME
Aryl hydrocarbon receptor, sequence (P35869 whole entry): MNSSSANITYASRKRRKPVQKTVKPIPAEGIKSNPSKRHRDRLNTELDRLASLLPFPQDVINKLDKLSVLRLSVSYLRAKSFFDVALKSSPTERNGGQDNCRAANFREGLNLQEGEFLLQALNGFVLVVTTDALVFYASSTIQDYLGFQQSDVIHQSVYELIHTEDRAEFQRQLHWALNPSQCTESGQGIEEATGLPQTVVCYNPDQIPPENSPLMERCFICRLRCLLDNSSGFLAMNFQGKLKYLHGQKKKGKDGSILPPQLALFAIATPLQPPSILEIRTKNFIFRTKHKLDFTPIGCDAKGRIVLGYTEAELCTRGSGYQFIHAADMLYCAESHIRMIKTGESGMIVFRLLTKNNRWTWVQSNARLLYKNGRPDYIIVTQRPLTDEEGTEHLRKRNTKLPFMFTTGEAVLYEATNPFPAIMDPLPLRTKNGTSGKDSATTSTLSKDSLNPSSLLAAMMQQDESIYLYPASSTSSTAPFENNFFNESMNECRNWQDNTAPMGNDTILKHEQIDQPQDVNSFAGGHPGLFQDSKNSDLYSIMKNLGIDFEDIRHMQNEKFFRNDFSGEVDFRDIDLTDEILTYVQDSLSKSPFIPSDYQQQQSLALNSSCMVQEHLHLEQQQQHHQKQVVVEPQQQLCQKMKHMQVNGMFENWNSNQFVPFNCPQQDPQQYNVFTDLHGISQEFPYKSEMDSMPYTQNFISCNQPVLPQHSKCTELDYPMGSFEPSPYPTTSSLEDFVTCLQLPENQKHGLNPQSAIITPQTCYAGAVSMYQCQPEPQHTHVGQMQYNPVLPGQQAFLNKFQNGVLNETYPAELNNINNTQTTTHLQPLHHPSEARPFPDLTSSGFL

[14] = enhancers of respiration in Yfh1-depleted yeast, dose response, Friedreich's ataxia, plus single-dose screen (AID 1465); type: functional;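 further: yeast depleted of Yfh1p frataxin homolog grown on glycerol needing respiration; WST-1 tetrazolium dye reduction as measure of cellular dehydrogenase metabolic activity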
[15] = inhibitors of firefly luciferase expression or activity, dose response, H4 neuroglioma cells, luminescence (AID 1990); type: functional, cell-based
[16] = Luminescence Cell-Based Dose Response HTS to Identify Inhibitors of 5'UTR Stem-Loop Driven Prion Protein mRNA Translation in H4 Neuroglioblastoma Cells. [Related pubchem assays: 1827 (Project Summary), 1813 (Primary HTS)]; type: functional
[17] = cytotoxicity toward DRD oncogenic fibroblasts, dose response, cell-based, non-viral oncogenic, luminescence (AID 1934); type: functional; conditions: Homo sapiens
[18] = test system: BJ; experiment: cytotoxicity toward BJ-TERT-LT-ST fibroblasts, dose response, cell-based, RAS-independent, luminescence (AID 1935); type: functional; conditions: Homo sapiens;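 further: BJ fibroblasts immortalized with TERT plus LT and ST oncogenes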
[19] = inhibitors of SNCA 5'UTR-driven reporter translation, confirmation, H4 neuroglioma cells, luminescence (AID 1988); type: functional, cell-based
[20] = test system: BJ; experiment: cytotoxicity toward BJ-TERT fibroblasts, dose response, cell-based, RAS-independent, luminescence (AID 1933); type: functional; conditions: Homo sapiens
[21] = cells; type: functional, cell-based
[22] = biological target: Paired box protein Pax-8 (Homo sapiens, UniProt Q06710); experiment: inhibitors of PAX8-driven TPO luciferase reporter, dose response, RMG-I cells, cherry-pick (AID 687027); type: functional, cell-based;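 further: luciferase reporter driven by Pax8 target thyroperoxidase promoter measured by SteadyGlo luminescence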
Paired box protein Pax-8, sequence (Q06710 whole entry): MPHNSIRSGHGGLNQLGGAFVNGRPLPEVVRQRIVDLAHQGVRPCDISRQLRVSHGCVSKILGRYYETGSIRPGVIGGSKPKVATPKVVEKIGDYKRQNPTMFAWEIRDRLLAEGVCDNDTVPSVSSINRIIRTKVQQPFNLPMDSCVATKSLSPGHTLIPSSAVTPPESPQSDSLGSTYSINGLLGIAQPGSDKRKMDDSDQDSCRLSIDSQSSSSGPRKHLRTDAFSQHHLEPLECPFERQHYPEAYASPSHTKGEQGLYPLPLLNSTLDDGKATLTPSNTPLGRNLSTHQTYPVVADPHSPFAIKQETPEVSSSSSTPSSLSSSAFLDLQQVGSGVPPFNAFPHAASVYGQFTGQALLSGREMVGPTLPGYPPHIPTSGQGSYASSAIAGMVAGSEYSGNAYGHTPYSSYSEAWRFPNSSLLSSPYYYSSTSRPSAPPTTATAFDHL

[23] = inhibitors of SNCA 5'UTR-driven translation, confirmation, luminescence, H4 neuroglioblastoma cells, dose confirmation (AID 2454); type: functional, cell-based;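 further: H4 neuroglioblastoma cells carrying an alpha-synuclein 5'UTR luciferase reporter; potency for inhibition of the luciferase signal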
[24] = test system: BJ; experiment: cells; type: functional, cell-based; conditions: Homo sapiens
[25] = luciferase reporter signal reduction – luminescence, H4-C neuroglioblastoma cells, dose response (AID 2458); type: functional, cell-based;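 further: H4 neuroglioblastoma cells stably carrying a luciferase reporter gene fusion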
[26] = test system: Streptococcus; experiment: Luminescence Microorganism-Based Dose Response Follow up to Identify Compounds Cytotoxic to Streptococcus. [Related pubchem assays: 1677 (Project Summary), 1915, 1914, 1902 (Retest at Dose), 1900 (Counter Screen), 1662 (Primary HTS)]; type: functional, organism-based
[27] = test system: Streptococcus; experiment: Group A Streptococcus viability loss, dose response, counter-screen for streptokinase expression inhibitor project, luminescence, BacTiterGlo (AID 1915); type: functional, organism-based;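 further: potency for reduction of bacterial viability or growth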
[28] = test system: Streptococcus sp. 'group A'; experiment: growth inhibition of control SK(-) GAS strain, dose response, counter-screen for streptokinase expression inhibitor project, luminescence, kanamycin, BacTiterGlo, confirmation (AID 1900); type: functional, organism-based
[29] = biological target: T4, Streptokinase A (Streptococcus pyogenes serotype M1, UniProt P10520); experiment: S. pyogenes streptokinase expression inhibitors, potency, dose response, plasminogen activation absorbance, OD405 (AID 1914); type: functional, Streptococcus pyogenes M1 GAS;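 further: secreted streptokinase activity via plasminogen activation per viability signal from cell pellet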
T4 sequence (P10520 whole entry): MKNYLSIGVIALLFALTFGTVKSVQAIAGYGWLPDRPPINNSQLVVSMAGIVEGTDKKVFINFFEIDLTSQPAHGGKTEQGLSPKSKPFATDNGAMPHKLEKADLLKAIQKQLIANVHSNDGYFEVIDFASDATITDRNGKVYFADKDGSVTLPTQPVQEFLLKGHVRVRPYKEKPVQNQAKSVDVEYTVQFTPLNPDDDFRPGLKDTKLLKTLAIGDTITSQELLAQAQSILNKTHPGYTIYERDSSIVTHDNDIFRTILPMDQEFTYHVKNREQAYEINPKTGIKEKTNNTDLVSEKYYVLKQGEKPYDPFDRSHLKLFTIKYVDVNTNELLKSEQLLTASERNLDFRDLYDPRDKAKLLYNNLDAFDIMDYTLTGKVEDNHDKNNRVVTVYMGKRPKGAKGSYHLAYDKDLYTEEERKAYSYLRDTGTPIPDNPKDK

[30] = biological target: Sphingosine 1-phosphate receptor 2 (Homo sapiens, UniProt O95136); experiment: Dose Response Cell Based Assay for Agonists of the S1P2 Receptor of Purchased Analogues. [Related pubchem assays: 729, 843, 854, 736 ]; type: functional
Sphingosine 1-phosphate receptor 2, sequence (O95136 whole entry): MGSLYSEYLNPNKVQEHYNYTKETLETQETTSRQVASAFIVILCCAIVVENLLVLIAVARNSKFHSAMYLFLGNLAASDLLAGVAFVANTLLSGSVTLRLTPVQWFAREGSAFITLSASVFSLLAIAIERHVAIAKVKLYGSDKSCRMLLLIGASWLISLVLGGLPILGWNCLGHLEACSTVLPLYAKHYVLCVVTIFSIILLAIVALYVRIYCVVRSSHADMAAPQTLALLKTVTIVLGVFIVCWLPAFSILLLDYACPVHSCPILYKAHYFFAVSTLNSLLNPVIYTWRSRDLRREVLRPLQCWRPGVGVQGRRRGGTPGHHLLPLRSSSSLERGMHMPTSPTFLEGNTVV

CCOc1ccc(N2C(=O)S/C(=C\c3ccc(O)c(OC)c3)C2=O)cc1
IC50 [1]: 29.8 µM (not active)
IC50 [2]: > 55.7 µM (not active)

CCOC(=O)C(/C=N/c1cc(C)nn1-c1ccc(Cl)cc1)=C(\O)OCC
IC50 [3]: 30.6 µM (not active)
IC50 [4]: 18.9 µM (not active)

CCc1ccc(N=Nc2ccc(O)c3[nH]cnc23)cc1
AC50 [5]: 0.996 µM (active)
EC50 [6]: > 29.9 µM (not active)
EC50 [7]: > 29.9 µM (not active)

CC1=NN(c2nc(-c3ccc(C)cc3)cs2)C(=O)C1N=Nc1ccc(C(N)=O)cc1 (stereo unspecified)
CC50 [8]: 6.04 µM (active)
AC50 [9]: 2.53 µM (active)

COC(=O)c1ccccc1NC(=O)Cn1c(-c2nonc2N)nc2ccccc21
IC50 [10]: 4.83 µM (active)
IC50 [11]: > 80 µM (inactive)
IC50 [12]: 15 µM (not active)

O=C(Nc1cccc(-c2nc3cc(Cl)ccc3o2)c1)C1CCCO1 (stereo unspecified)
EC50 [13]: 2.58 µM (active)

CCOC(=O)/C(=C\C=C1/Sc2ccccc2N1CC)C(C)=O
EC50 [14]: > 100 µM (active)

COc1cc2c(c(OC)c1OC)-c1ccc(O)cc1[C@@H](NC(C)=O)CC2 [N-ACETYLCOLCHINOL]
EC50 [15]: < 0.1 µM (active)
EC50 [16]: < 0.1 µM (active)
EC50 [17]: 0.201 µM (active)
EC50 [18]: 0.146 µM (inconclusive)
EC50 [19]: < 0.1 µM (active)
EC50 [20]: 0.193 µM (active)
EC50 [21]: 0.1 µM (active)
AC50 [22]: 0.37 µM (active)
IC50 [11]: > 80 µM (inactive)
EC50 [23]: 0.072 µM (active)
EC50 [24]: 0.345 µM (inconclusive)
EC50 [25]: 0.088 µM (active)

Cn1c(=O)c2c(nc(SCc3ccccc3)n2Cc2ccc(Cl)cc2)n(C)c1=O
EC50 [26]: > 500 µM (not active)
EC50 [27]: > 150 µM (not active)
EC50 [28]: 7.96 µM (active)
EC50 [29]: 10.7 µM (active)

Cc1cc(C(=O)CN(C)CC(=O)N2CCCC2)c(C)n1Cc1ccccc1
EC50 [30]: > 30 µM (not active)
